Values quoted from earlier work, collected in US20050148589A1, “Compositions of a cyclooxygenase-2 selective inhibitor and a neurotrophic factor-modulating agent for the treatment of central nervous system mediated disorders” (Pharmacia & Upjohn Company LLC, priority 2003, published 2005).

Legend:
[1] = system: mRNA levels of various neurotrophic factors, including nerve growth factor (NGF), transforming growth factor (beta), and S100B in the central nervous system; settings: treatment with Neotrofin
[2] = system: brain damage due to neuroexcitotoxins; settings: in vivo
[3] = system: animal models of cognitive decline, aging, neuroprotection, and spinal cord injury; settings: pre-clinical studies

Compound	mRNA levels of neurotrophic factors (NGF, TGF beta, S100B) in the central nervous system [1]	prevention of brain damage due to neuroexcitotoxins [2]	restoration of function in animal models [3]
O=C(CCn1cnc2c(=O)[nH]cnc21)Nc1ccc(C(=O)[O-])cc1.[K+] [Neotrofin]	elevated the mRNA levels of various neurotrophic factors	–	–
O=C(CCn1cnc2c(=O)[nH]cnc21)Nc1ccc(C(=O)[O-])cc1.[K+] [Leteprinim potassium]	–	shown to prevent brain damage due to neuroexcitotoxins	restores function in animal models of cognitive decline, aging, neuroprotection, and spinal cord injury
